Test results reported in ChEMBL document CHEMBL1127265, “Synthesis of a novel ring contracted artemisinin derivative” (1994).

Organism: Mus musculus
Test: Blood schizonticidal activity in mice model with Plasmodium berghei k-173 infection was determined
Format: functional

SMILES	ED90 [mg/kg]
C[C@@H]1CCC2[C@]34OOC(C)(CCC13)O[C@H]4O[C@]2(C)CO (single isomer, unassigned)	25
CC1OC2OC3(C)CCC4[C@H](C)CCC([C@H]1C)[C@@]24OO3.O (single isomer, unassigned)	10
C[C@@H]1CCC2[C@@H](C)[C@H](OC[C@@]3(C)OC4OC5(C)CCC6[C@H](C)CCC3[C@@]46OO5)OC3OC4(C)CCC1[C@]32OO4 (single isomer, unassigned)	2.5
C[C@@H]1CCC2[C@@H](C)[C@@H](OC[C@]3(C)OC4OC5(C)CCC6[C@@H](C)CCC3[C@]46OO5)OC3OC4(C)CCC1[C@]32OO4 (single isomer, unassigned)	1.25
C[C@@H]1CCC2[C@]34OOC(C)(CCC13)O[C@H]4O[C@]2(C)C=O (single isomer, unassigned)	25
CCO[C@H]1O[C@@H]2O[C@@]3(C)CC[C@H]4[C@H](C)CC[C@@H]([C@H]1C)[C@@]24OO3 [ARTEMOTIL]	1.25
